Measurements taken from patent publication US9605024B2, “PAR4 agonist peptides” (Bristol-Myers Squibb Company, priority 2012, dated 2017).

Experiments:
[1] = molecular target: protease-activated receptor type 4 (PAR4) (Homo sapiens (Human), UniProt Q96RI0); conditions: abstract of Lee et al., J. Med. Chem. 2001; cited from earlier work
washed platelets = assay: PAR4 agonist peptide induced platelet aggregation assay (washed platelets); format: cell-based, human; conditions: agonist activity
Description: Human blood was collected in ACD (85 mM tri-sodium citrate, 78 mM citric acid, 110 mM D-glucose, pH 4.4) at a ratio of 1.4 ml per 10 ml blood. PRP was isolated by centrifugation at 170 g for 14 minutes and platelets were further pelleted by centrifugation at 1300 g for 6 minutes. Platelets were washed once with 10 ml ACD containing 1 mg/ml bovine serum albumin.
The ability of the compounds of the current invention to induce platelet aggregation was tested in a 96-well microplate aggregation assay format. Briefly, a washed platelet suspension with varying concentrations of agonist compounds was assayed. Aggregation was initiated by the addition of a titered test agonist peptide. The plate was then placed into a 37° C. Molecular Devices SPECTRAMAX® Plus Plate Reader (Sunnyvale, Calif.). […] The plate also included an untreated control sample which served as ODmax, while buffer containing no platelets was the ODmin. Platelet aggregation was determined by subtracting the ODmax from the ODmin for the 100% aggregation value. In experimental samples, the observed transmission was subtracted from the minimum value and then compared to the 100% aggregation value to determine the percentage aggregation. ED50 values were determined using Excel Fit software.

PAR4 [2] = molecular target: T1, PAR4 (Homo sapiens (Human), UniProt Q96RI0); assay: FLIPR assay in PAR4-expressing HEK293 cells, test for antagonist activity; format: cell-based; conditions: H-Ala-Phe(4-F)-Pro-Gly-Trp-Leu-Val-Lys-Asn-Gly-NH2-induced calcium mobilization
Excerpt: The FLIPR assay is an exemplary in vitro assay for measuring the activity of the PAR4 antagonists of the present invention. In this assay, intracellular calcium mobilization is induced in PAR4 expressing cells by a PAR4 agonist and calcium mobilization is monitored. See, e.g., Example A. The FLIPR assay is also an exemplary in vitro assay for measuring the agonist activity of PAR4 agonist peptides. See Example H.
HEK293 cells stably expressing PAR4 were generated by a standard method of transfection of human […] cDNA expression vector or by RAGE technology from Athersys Inc. (Cleveland, Ohio) and selected based on PAR4 protein expression of mRNA expression. […] These cells express endogenous PAR1 and can elicit calcium signal upon stimulation with PAR1 agonist peptide.
Counter screens for agonist activity and PAR1 antagonist activity were also performed. Briefly, HEK293 EBNA PAR4 clone 20664.1J cells were plated 24 hrs. prior to experiment in 384 well, Poly-D-Lysine coated, black, clear bottom plates (Greiner Bio-One, Monroe, N.C.). Cells were plated at 20,000 cells/well in 20 μl growth medium and incubated at 37° C. with 5% CO2 overnight. At time of assay, media was replaced with 40 μl 1× Hank's Buffered Saline Solution (HBSS) (with 10 mM HEPES) and 20 μl test compound also diluted in 1×HBSS buffer was added at various concentrations and 0.67% DMSO final concentration on the FDSS for agonist measurement. The cells were then incubated for 30 minutes at room temperature followed by addition of 20 μl of agonist peptide for antagonist measurement on the FDSS.

PAR4 [3] = molecular target: T1, PAR4; assay: Gamma thrombin induced platelet aggregation assay (PRP assay); format: cell-based; conditions: platelet rich plasma
Description: The platelet rich plasma was isolated by centrifugation at 170 g for 14 minutes.
The ability of the compounds of the current invention to inhibit platelet aggregation induced by gamma-thrombin was tested in a 96-well microplate aggregation assay format. Briefly, PRP or washed platelet suspension (100 μl) was pre-incubated for 5 minutes at room temperature with varying concentrations of compounds. Aggregation was initiated by ˜10-50 nM gamma thrombin (Haematologic Technologies, Essex Junction, Vt.), which was titrated daily to achieve 80% platelet aggregation. Refludan at 1 U/mL (Berlex, Montville, N.J.) was added to the gamma thrombin sample to prevent PAR1 activation induced by residual alpha-thrombin contamination. The plate was then placed into a 37° C. Molecular Devices (Sunnyvale, Calif.) SPECTRAMAX® Plus Plate Reader. […] The plate also included an untreated control sample which served as ODmax, while buffer containing no platelets was the ODmin. Platelet aggregation was determined by subtracting the ODmax from the ODmin for the 100% aggregation value. In experimental samples, the observed transmission was subtracted from the minimum value and then compared to the 100% aggregation value to determine the percentage aggregation. IC50 values are determined using Excel Fit software.

[4] = TRACER phase III trial, ACS patients; cited from earlier work

T1 sequence (Q96RI0 18-385): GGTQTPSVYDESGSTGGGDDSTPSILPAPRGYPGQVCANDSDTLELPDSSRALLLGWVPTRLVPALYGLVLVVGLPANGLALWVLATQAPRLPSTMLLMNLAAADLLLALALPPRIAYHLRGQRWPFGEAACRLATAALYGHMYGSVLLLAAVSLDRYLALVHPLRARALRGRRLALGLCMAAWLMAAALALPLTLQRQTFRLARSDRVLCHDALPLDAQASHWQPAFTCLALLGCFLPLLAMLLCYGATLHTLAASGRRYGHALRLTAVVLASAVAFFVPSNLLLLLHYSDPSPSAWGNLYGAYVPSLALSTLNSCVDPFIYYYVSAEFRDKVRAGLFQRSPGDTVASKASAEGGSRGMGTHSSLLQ
Sequence of protease-activated receptor type 4 (PAR4) (Q96RI0 18-385): as above

Structure (SMILES) | ED50 (μM) [Platelet Aggregation] (washed platelets) [µM] | further results
CCOC(=O)c1ccc(-c2nn(Cc3ccccc3)c3ccccc23)cc1 [Compound 58] | – | inhibition of PAR4-dependent platelet activation [1]: selective and potent inhibitor
COc1cc(OCc2csc(C)n2)c2cc(-c3cn4nc(OC)sc4n3)oc2c1 [Example 1, 2-Methoxy-6-(6-methoxy-4-((2-methylthiazol-4-yl)methoxy)benzofuran-2-yl)imidazo[2,1-b][1,3,4]thiadiazole] | 13 | –
COc1cc(OCc2csc(C(F)(F)F)n2)c2cc(-c3cn4nc(OC)sc4n3)oc2c1 [Example 2, 2-Methoxy-6-(6-methoxy-4-((2-(trifluoromethyl)thiazol-4-yl)methoxy)benzofuran-2-yl)imidazo[2,1-b][1,3,4]thiadiazole] | – | EC50 (PAR4 [2]): 0.42 nM; IC50 (PAR4 [3]): 49 nM
COc1cc(OCc2csc(-c3ccccc3)n2)c2cc(-c3cn4nc(OC)sc4n3)oc2c1 [Example 3, 2-Methoxy-6-(6-methoxy-4-((2-phenylthiazol-4-yl)methoxy)benzofuran-2-yl)imidazo[2,1-b][1,3,4]thiadiazole] | 0.86 | –
COCCOCc1nc(COc2cc(OC)cc3oc(-c4cn5nc(OC)sc5n4)cc23)cs1 [Example 6, 2-Methoxy-6-(6-methoxy-4-((2-((2-methoxyethoxy)methyl)thiazol-4-yl)methoxy)benzofuran-2-yl)imidazo[2,1-b][1,3,4]thiadiazole] | 1.1 | –
COc1cc(OCc2cn(-c3ccccc3)nn2)c2cc(-c3cn4nc(OC)sc4n3)oc2c1 [Example 9, 2-Methoxy-6-(6-methoxy-4-((1-phenyl-1H-1,2,3-triazol-4-yl)methoxy)benzofuran-2-yl)imidazo[2,1-b][1,3,4]thiadiazole] | – | EC50 (PAR4 [2]): 5.3 nM; IC50 (PAR4 [3]): > 3000 nM
COc1cc(OCc2cnnn2-c2ccccc2)c2cc(-c3cn4nc(OC)sc4n3)oc2c1 [Example 10, 2-Methoxy-6-(6-methoxy-4-((1-phenyl-1H-1,2,3-triazol-5-yl)methoxy)benzofuran-2-yl)imidazo[2,1-b][1,3,4]thiadiazole] | – | EC50 (PAR4 [2]): 3.5 nM; IC50 (PAR4 [3]): 2700 nM
COc1cc(OCc2csc(-c3cccc(C)c3)n2)c2cc(-c3cn4nc(OC)sc4n3)oc2c1 [Example 12] | 0.97 | –
COc1cc(OCc2nc(-c3ccccc3)sc2C)c2cc(-c3cn4nc(OC)sc4n3)oc2c1 [Example 13] | 0.67 | –
COc1cc(OCc2csc(C3CCOCC3)n2)c2cc(-c3cn4nc(OC)sc4n3)oc2c1 [Example 14] | 12.3 | –
COc1cc(OCc2csc(-c3ccc(F)cc3)n2)c2cc(-c3cn4nc(OC)sc4n3)oc2c1 [Example 15] | 0.63 | –
COc1cc(OCc2csc(-c3ccccc3Cl)n2)c2cc(-c3cn4nc(OC)sc4n3)oc2c1 [Example 16] | 37 | –
COc1cc(OCc2csc(-c3cccc(C(F)(F)F)c3)n2)c2cc(-c3cn4nc(OC)sc4n3)oc2c1 [Example 17] | 106 | –
COc1ccc(-c2nc(COc3cc(OC)cc4oc(-c5cn6nc(OC)sc6n5)cc34)cs2)cc1 [Example 18] | 5.5 | EC50 (PAR4 [2]): 2.5 nM; IC50 (PAR4 [3]): 3.6 nM
COc1cc(OCc2csc(-c3ccccc3OC)n2)c2cc(-c3cn4nc(OC)sc4n3)oc2c1 [Example 19] | 1.6 | –
COc1cc(OCc2csc(C3CCCCC3)n2)c2cc(-c3cn4nc(OC)sc4n3)oc2c1 [Example 20] | 4.1 | –

Structure (SMILES) | ED50 (μM) [Platelet Aggregation] (washed platelets) [µM] | further results
COc1cc(OCc2csc(N3CCCCC3)n2)c2cc(-c3cn4nc(OC)sc4n3)oc2c1 [Example 21] | 2.4 | –
COc1cc(OCc2csc(N3CCN(C)CC3)n2)c2cc(-c3cn4nc(OC)sc4n3)oc2c1 [Example 22] | 1.2 | –
CCc1nc(COc2cc(OC)cc3oc(-c4cn5nc(OC)sc5n4)cc23)cs1 [Example 23] | 0.79 | –
COc1cc(OCc2csc(-c3ccc(F)cc3F)n2)c2cc(-c3cn4nc(OC)sc4n3)oc2c1 [Example 24] | 0.69 | –
COc1cc(OCc2csc(-c3cccc(F)c3)n2)c2cc(-c3cn4nc(OC)sc4n3)oc2c1 [Example 25] | 52 | –
COc1cc(OCc2csc(-c3ccccc3F)n2)c2cc(-c3cn4nc(OC)sc4n3)oc2c1 [Example 26] | 1.0 | –
COc1cc(OCc2csc(-c3ccc(Cl)cc3)n2)c2cc(-c3cn4nc(OC)sc4n3)oc2c1 [Example 27] | 1.7 | –
COc1cc(OCc2csc(-c3ccncc3)n2)c2cc(-c3cn4nc(OC)sc4n3)oc2c1 [Example 28] | 0.76 | –
COc1cc(OCc2csc(-c3ccc(OC(F)(F)F)cc3)n2)c2cc(-c3cn4nc(OC)sc4n3)oc2c1 [Example 29] | 1.0 | –
COc1cc(OCc2csc(-c3cccnc3)n2)c2cc(-c3cn4nc(OC)sc4n3)oc2c1 [Example 30] | 1.7 | –
COc1cc(OCc2csc(N3CCC(F)(F)CC3)n2)c2cc(-c3cn4nc(OC)sc4n3)oc2c1 [Example 31] | 0.63 | –
COc1cc(OCc2csc(-c3cnccn3)n2)c2cc(-c3cn4nc(OC)sc4n3)oc2c1 [Example 32] | 0.61 | –
COc1cc(OCc2csc(-c3cc(C)on3)n2)c2cc(-c3cn4nc(OC)sc4n3)oc2c1 [Example 33] | 1.2 | EC50 (PAR4 [2]): 1.7 nM; IC50 (PAR4 [3]): 38 nM
COc1cc(OCc2cscn2)c2cc(-c3cn4nc(OC)sc4n3)oc2c1 [Example 34] | 3.0 | –
COc1nn2cc(-c3cc4c(OCc5csc(-c6ccccc6)n5)cc(F)cc4o3)nc2s1 [Example 36, 6-(6-Fluoro-4-((2-phenylthiazol-4-yl)methoxy)benzofuran-2-yl)-2-methoxyimidazo[2,1-b][1,3,4]thiadiazole] | – | EC50 (PAR4 [2]): 1 nM; IC50 (PAR4 [3]): 48 nM
CCOC(=O)N[C@@H]1CC[C@@H]2[C@@H](C1)C[C@H]1C(=O)O[C@H](C)[C@H]1[C@H]2/C=C/c1ccc(-c2cccc(F)c2)cn1 [vorapaxar] | – | cardiovascular events [4]: did not significantly reduce cardiovascular events; risk of major bleeding [4]: significantly increased the risk of major bleeding
